{"source": "patent US20200390702A1", "about": "“LIPOSOMAL TAXANES FOR TREATMENT OF SCLC” (Plus Therapeutics, Inc., priority 2017, published 2020)", "origin": "cited, not measured here", "tested_on": "SCLC", "conditions": "intravenous", "note": "Where two headings read alike, the source gives them in different places.", "data": [{"smiles": "CC[C@@]1(O)C(=O)OCc2c1cc1n(c2=O)Cc2cc3c(CN(C)C)c(O)ccc3nc2-1", "note": "[Topotecan]", "values": [{"measurement": "response rate", "setting": "chemotherapy-refractory relapsed cases", "result": 4.0, "unit": "%"}, {"measurement": "response rate", "setting": "chemotherapy-sensitive relapsed cases", "result": 20.4, "unit": "%"}]}]}
